In ChEMBL document CHEMBL1201862, “PubChem BioAssay data set” (2004):
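Each compound was tested at five concentrations against cells in 96-well plates for 48 hours. GI50 is the concentration that inhibits growth by half.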 Calls of active or inactive are those of the source. Cut-off read from the data, not from the text of the source: active = GI50 up to about 1.1 µM and inactive = higher.

Experiments:
Experiment in all cases: DTP human tumour cell line panel, 48 h
OVCAR-8 = system: OVCAR-8
HT-29 = system: HT-29
HCT-116 = system: HCT-116
SW-620 = system: SW-620
T47D = system: T47D
NCI-H226 = system: NCI-H226
RXF 393 = system: RXF 393
SF-539 = system: SF-539
HOP-92 = system: HOP-92
DU-145 = system: DU-145
IGROV-1 = system: IGROV-1
RPMI-8226 = system: RPMI-8226
COLO 205 = system: COLO 205
M14 = system: M14
SF-295 = system: SF-295
SNB-75 = system: SNB-75
NCI/ADR-RES = system: NCI/ADR-RES
SK-MEL-2 = system: SK-MEL-2
CAKI-1 = system: CAKI-1
MOLT-4 = system: MOLT-4
SR = system: SR
A498 = system: A498
MDA-N = system: MDA-N
TK-10 = system: TK-10
KM12 = system: KM12
UACC-257 = system: UACC-257
PC-3 = system: PC-3
A549 = system: A549
OVCAR-3 = system: OVCAR-3
HCC 2998 = system: HCC 2998
SNB-19 = system: SNB-19
786-0 = system: 786-0
HCT-15 = system: HCT-15
NCI-H522 = system: NCI-H522
SF-268 = system: SF-268
U-251 = system: U-251
NCI-H23 = system: NCI-H23
HL-60 = system: HL-60
ACHN = system: ACHN
UACC-62 = system: UACC-62
SK-OV-3 = system: SK-OV-3
SK-MEL-5 = system: SK-MEL-5
MCF7 = system: MCF7
SK-MEL-28 = system: SK-MEL-28
K562 = system: K562
OVCAR-5 = system: OVCAR-5
Malme-3M = system: Malme-3M
NCI-H460 = system: NCI-H460
CCRF-CEM = system: CCRF-CEM
EKVX = system: EKVX
LOX IMVI = system: LOX IMVI
HOP-62 = system: HOP-62
MDA-MB-435 = system: MDA-MB-435
Hs-578T = system: Hs-578T
BT-549 = system: BT-549
UO-31 = system: UO-31
SN12C = system: SN12C
OVCAR-4 = system: OVCAR-4

Measured: GI50

O=C1NC(Nc2ccccc2Cl)=N/C1=C\c1c(Cl)cccc1Cl
inactive: OVCAR-8 31.6 µM | HT-29 31.6 µM | HCT-116 22.5 µM | SW-620 37.5 µM | T47D 28.6 µM | NCI-H226 42.5 µM | RXF 393 23.4 µM | SF-539 51.5 µM | HOP-92 19.9 µM | DU-145 37.2 µM | IGROV-1 25.8 µM | RPMI-8226 20.6 µM | COLO 205 27.7 µM | M14 40.9 µM | SF-295 26.5 µM | SNB-75 24.7 µM | NCI/ADR-RES 23.2 µM | SK-MEL-2 28.8 µM | CAKI-1 27.8 µM | MOLT-4 27 µM | SR 5.52 µM | A498 34.5 µM | MDA-N 16.5 µM | TK-10 30.9 µM | KM12 23.7 µM | UACC-257 25.4 µM | PC-3 25.1 µM | A549 30.4 µM | OVCAR-3 27 µM | HCC 2998 21.9 µM | SNB-19 44.1 µM | 786-0 33.4 µM | NCI-H522 18.7 µM | SF-268 31.1 µM | U-251 8.43 µM | NCI-H23 37.1 µM | HL-60 18.6 µM | ACHN 50.5 µM | UACC-62 32.1 µM | SK-OV-3 59.8 µM | SK-MEL-5 20.3 µM | MCF7 28.7 µM | SK-MEL-28 51.8 µM | K562 17.1 µM | OVCAR-5 30 µM | Malme-3M 31.1 µM | NCI-H460 24.9 µM | CCRF-CEM 34.4 µM | EKVX 31 µM | LOX IMVI 29.4 µM | HOP-62 39.7 µM | MDA-MB-435 11 µM | Hs-578T 28.8 µM | BT-549 34.1 µM | UO-31 20.7 µM | SN12C 28.2 µM | OVCAR-4 11.6 µM
25.5 µM: HCT-15
